In PubChem BioAssay (NCI):
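Protocol summary: plate cells (96-well), add compound at 5 concentrations, incubate 48 h, interpolate endpoints linearly. TGI is the concentration that stops growth completely.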

Assays:
Test in all cases: NCI-60 cell line screen, 48 h
786-0 renal = test system: 786-0 renal
MDA-MB-435 = test system: MDA-MB-435
UO-31 renal = test system: UO-31 renal
COLO 205 colon = test system: COLO 205 colon
SK-MEL-2 melanoma = test system: SK-MEL-2 melanoma
PC-3 prostate = test system: PC-3 prostate
MDA-MB-231 breast = test system: MDA-MB-231 breast
SNB-75 CNS = test system: SNB-75 CNS
CCRF-CEM leukemia = test system: CCRF-CEM leukemia
ACHN renal = test system: ACHN renal
A549 NSCLC = test system: A549 NSCLC
NCI-H23 lung = test system: NCI-H23 lung
SK-MEL-28 melanoma = test system: SK-MEL-28 melanoma
SNB-19 CNS = test system: SNB-19 CNS
NCI-H522 lung = test system: NCI-H522 lung
HCT-116 colon = test system: HCT-116 colon
HOP-62 NSCLC = test system: HOP-62 NSCLC
NCI/ADR-RES ovarian = test system: NCI/ADR-RES ovarian
OVCAR-8 ovarian = test system: OVCAR-8 ovarian
SF-268 CNS = test system: SF-268 CNS
OVCAR-5 ovarian = test system: OVCAR-5 ovarian
IGROV1 ovarian = test system: IGROV1 ovarian
CAKI-1 renal = test system: CAKI-1 renal
EKVX NSCLC = test system: EKVX NSCLC
KM12 colon = test system: KM12 colon
A498 renal = test system: A498 renal
OVCAR-3 ovarian = test system: OVCAR-3 ovarian
T-47D breast = test system: T-47D breast
MALME-3M melanoma = test system: MALME-3M melanoma
SF-295 CNS = test system: SF-295 CNS
TK-10 renal = test system: TK-10 renal
SK-OV-3 ovarian = test system: SK-OV-3 ovarian
RPMI-8226 leukemia = test system: RPMI-8226 leukemia
RXF 393 renal = test system: RXF 393 renal
BT-549 breast = test system: BT-549 breast
MDA-N = test system: MDA-N
HCC-2998 colon = test system: HCC-2998 colon
MCF7 breast = test system: MCF7 breast
SF-539 CNS = test system: SF-539 CNS
LOX IMVI melanoma = test system: LOX IMVI melanoma
SN12C renal = test system: SN12C renal
NCI-H226 lung = test system: NCI-H226 lung
OVCAR-4 ovarian = test system: OVCAR-4 ovarian
U251 CNS = test system: U251 CNS
SK-MEL-5 melanoma = test system: SK-MEL-5 melanoma
HCT-15 colon = test system: HCT-15 colon
SW-620 colon = test system: SW-620 colon
NCI-H460 lung = test system: NCI-H460 lung
M14 melanoma = test system: M14 melanoma
UACC-257 melanoma = test system: UACC-257 melanoma
HOP-92 NSCLC = test system: HOP-92 NSCLC
MOLT-4 leukemia = test system: MOLT-4 leukemia
UACC-62 melanoma = test system: UACC-62 melanoma
HT29 colon = test system: HT29 colon
SR leukemia = test system: SR leukemia
DU-145 prostate = test system: DU-145 prostate
HS 578T breast = test system: HS 578T breast
HL-60(TB) leukemia = test system: HL-60(TB) leukemia
K-562 leukemia = test system: K-562 leukemia

N#Cc1c(-c2ccccc2)c(N=Nc2ccc(Cl)cc2)c(=O)n2c1[nH]c1ccccc12
TGI (786-0 renal): 73.2 µM
TGI (MDA-MB-435): > 100 µM
TGI (UO-31 renal): > 100 µM
TGI (COLO 205 colon): > 100 µM
TGI (SK-MEL-2 melanoma): > 100 µM
TGI (PC-3 prostate): > 100 µM
TGI (MDA-MB-231 breast): > 100 µM
TGI (SNB-75 CNS): > 100 µM
TGI (CCRF-CEM leukemia): > 100 µM
TGI (ACHN renal): > 100 µM
TGI (A549 NSCLC): > 100 µM
TGI (NCI-H23 lung): > 100 µM
TGI (SK-MEL-28 melanoma): > 100 µM
TGI (SNB-19 CNS): > 100 µM
TGI (NCI-H522 lung): > 100 µM
TGI (HCT-116 colon): > 100 µM
TGI (HOP-62 NSCLC): > 100 µM
TGI (NCI/ADR-RES ovarian): > 100 µM
TGI (OVCAR-8 ovarian): > 100 µM
TGI (SF-268 CNS): > 100 µM
TGI (OVCAR-5 ovarian): > 100 µM
TGI (IGROV1 ovarian): > 100 µM
TGI (CAKI-1 renal): > 100 µM
TGI (EKVX NSCLC): > 100 µM
TGI (KM12 colon): > 100 µM
TGI (A498 renal): > 100 µM
TGI (OVCAR-3 ovarian): > 100 µM
TGI (T-47D breast): > 100 µM
TGI (MALME-3M melanoma): > 100 µM
TGI (SF-295 CNS): > 100 µM
TGI (TK-10 renal): > 100 µM
TGI (SK-OV-3 ovarian): > 100 µM
TGI (RPMI-8226 leukemia): > 100 µM
TGI (RXF 393 renal): > 100 µM
TGI (BT-549 breast): > 100 µM
TGI (MDA-N): > 100 µM
TGI (HCC-2998 colon): > 100 µM
TGI (MCF7 breast): > 100 µM
TGI (SF-539 CNS): > 100 µM
TGI (LOX IMVI melanoma): > 100 µM
TGI (SN12C renal): > 100 µM
TGI (NCI-H226 lung): > 100 µM
TGI (OVCAR-4 ovarian): 85.6 µM
TGI (U251 CNS): > 100 µM
TGI (SK-MEL-5 melanoma): > 100 µM
TGI (HCT-15 colon): > 100 µM
TGI (SW-620 colon): > 100 µM
TGI (NCI-H460 lung): > 100 µM
TGI (M14 melanoma): > 100 µM
TGI (UACC-257 melanoma): > 100 µM

CCOC(=O)/C(C#N)=C/c1ccnc2ccccc12
TGI (786-0 renal): > 100 µM
TGI (MDA-MB-435): > 100 µM
TGI (HOP-92 NSCLC): > 100 µM
TGI (COLO 205 colon): > 100 µM
TGI (SK-MEL-2 melanoma): > 100 µM
TGI (PC-3 prostate): > 100 µM
TGI (MOLT-4 leukemia): > 100 µM
TGI (MDA-MB-231 breast): > 100 µM
TGI (SNB-75 CNS): > 100 µM
TGI (ACHN renal): > 100 µM
TGI (A549 NSCLC): > 100 µM
TGI (NCI-H23 lung): > 100 µM
TGI (SK-MEL-28 melanoma): > 100 µM
TGI (SNB-19 CNS): > 100 µM
TGI (NCI-H522 lung): > 100 µM
TGI (HCT-116 colon): > 100 µM
TGI (HOP-62 NSCLC): > 100 µM
TGI (NCI/ADR-RES ovarian): 52 µM
TGI (OVCAR-8 ovarian): 57 µM
TGI (SF-268 CNS): > 100 µM
TGI (OVCAR-5 ovarian): > 100 µM
TGI (IGROV1 ovarian): > 100 µM
TGI (CAKI-1 renal): > 100 µM
TGI (EKVX NSCLC): > 100 µM
TGI (KM12 colon): > 100 µM
TGI (A498 renal): > 100 µM
TGI (OVCAR-3 ovarian): > 100 µM
TGI (UACC-62 melanoma): > 100 µM
TGI (HT29 colon): > 100 µM
TGI (T-47D breast): > 100 µM
TGI (MALME-3M melanoma): > 100 µM
TGI (SF-295 CNS): > 100 µM
TGI (SR leukemia): 64.9 µM
TGI (DU-145 prostate): > 100 µM
TGI (TK-10 renal): > 100 µM
TGI (SK-OV-3 ovarian): > 100 µM
TGI (RPMI-8226 leukemia): 92.5 µM
TGI (RXF 393 renal): > 100 µM
TGI (BT-549 breast): > 100 µM
TGI (MDA-N): > 100 µM
TGI (HCC-2998 colon): > 100 µM
TGI (SF-539 CNS): 50 µM
TGI (LOX IMVI melanoma): 72.1 µM
TGI (SN12C renal): > 100 µM
TGI (NCI-H226 lung): > 100 µM
TGI (OVCAR-4 ovarian): > 100 µM
TGI (U251 CNS): > 100 µM
TGI (HS 578T breast): > 100 µM
TGI (SK-MEL-5 melanoma): > 100 µM
TGI (HCT-15 colon): > 100 µM
TGI (SW-620 colon): > 100 µM
TGI (NCI-H460 lung): > 100 µM
TGI (M14 melanoma): > 100 µM
TGI (UACC-257 melanoma): > 100 µM

Nc1nc2c(c(=O)[nH]1)C(c1ccc(Cl)cc1)C=C(c1ccccc1)N2 (stereo not given)
TGI (786-0 renal): 74.5 µM
TGI (MDA-MB-435): 41.8 µM
TGI (HOP-92 NSCLC): 54.7 µM
TGI (UO-31 renal): > 100 µM
TGI (HL-60(TB) leukemia): > 100 µM
TGI (COLO 205 colon): 45.6 µM
TGI (MDA-MB-231 breast): 43.6 µM
TGI (CCRF-CEM leukemia): 93.4 µM
TGI (ACHN renal): > 100 µM
TGI (A549 NSCLC): > 100 µM
TGI (NCI-H23 lung): 59.1 µM
TGI (SK-MEL-28 melanoma): 60.6 µM
TGI (SNB-19 CNS): > 100 µM
TGI (HCT-116 colon): 41.8 µM
TGI (CAKI-1 renal): > 100 µM
TGI (A498 renal): > 100 µM
TGI (UACC-62 melanoma): 78.3 µM
TGI (T-47D breast): 72.7 µM
TGI (SF-295 CNS): > 100 µM
TGI (SR leukemia): 51.8 µM
TGI (DU-145 prostate): > 100 µM
TGI (TK-10 renal): > 100 µM
TGI (SK-OV-3 ovarian): 54.9 µM
TGI (RPMI-8226 leukemia): 39.3 µM
TGI (RXF 393 renal): > 100 µM
TGI (BT-549 breast): > 100 µM
TGI (MDA-N): 47.7 µM
TGI (HCC-2998 colon): 34.2 µM
TGI (LOX IMVI melanoma): > 100 µM
TGI (SN12C renal): 46.6 µM
TGI (OVCAR-4 ovarian): > 100 µM
TGI (K-562 leukemia): 60 µM
TGI (U251 CNS): 39.4 µM
TGI (SK-MEL-5 melanoma): 55.8 µM
TGI (HCT-15 colon): > 100 µM
TGI (SW-620 colon): 61.9 µM
TGI (NCI-H460 lung): 71.7 µM
TGI (UACC-257 melanoma): > 100 µM

FC(F)(F)c1cccc(-c2nc3ccccc3c3c2[C@@]2(N4CCCC4)CCCC[C@@H]32)c1
TGI (786-0 renal): > 100 µM
TGI (MDA-MB-435): 59.3 µM
TGI (HOP-92 NSCLC): 55.2 µM
TGI (UO-31 renal): 48.9 µM
TGI (HL-60(TB) leukemia): 71.6 µM
TGI (COLO 205 colon): 30.4 µM
TGI (SK-MEL-2 melanoma): 41.3 µM
TGI (PC-3 prostate): > 100 µM
TGI (MOLT-4 leukemia): > 100 µM
TGI (MDA-MB-231 breast): 49.3 µM
TGI (SNB-75 CNS): > 100 µM
TGI (CCRF-CEM leukemia): 87.9 µM
TGI (A549 NSCLC): > 100 µM
TGI (NCI-H23 lung): > 100 µM
TGI (SNB-19 CNS): > 100 µM
TGI (NCI-H522 lung): 31.8 µM
TGI (HCT-116 colon): > 100 µM
TGI (HOP-62 NSCLC): > 100 µM
TGI (NCI/ADR-RES ovarian): > 100 µM
TGI (SF-268 CNS): > 100 µM
TGI (OVCAR-5 ovarian): > 100 µM
TGI (IGROV1 ovarian): 37.4 µM
TGI (CAKI-1 renal): > 100 µM
TGI (EKVX NSCLC): > 100 µM
TGI (KM12 colon): > 100 µM
TGI (A498 renal): 95.6 µM
TGI (OVCAR-3 ovarian): > 100 µM
TGI (UACC-62 melanoma): 56.3 µM
TGI (HT29 colon): > 100 µM
TGI (T-47D breast): > 100 µM
TGI (MALME-3M melanoma): > 100 µM
TGI (SF-295 CNS): 74.7 µM
TGI (SR leukemia): > 100 µM
TGI (DU-145 prostate): > 100 µM
TGI (TK-10 renal): 89.8 µM
TGI (SK-OV-3 ovarian): > 100 µM
TGI (RPMI-8226 leukemia): 41.4 µM
TGI (RXF 393 renal): > 100 µM
TGI (MDA-N): > 100 µM
TGI (MCF7 breast): 62.8 µM
TGI (SF-539 CNS): > 100 µM
TGI (LOX IMVI melanoma): 38.6 µM
TGI (SN12C renal): > 100 µM
TGI (NCI-H226 lung): > 100 µM
TGI (OVCAR-4 ovarian): > 100 µM
TGI (K-562 leukemia): > 100 µM
TGI (U251 CNS): 71.4 µM
TGI (HS 578T breast): > 100 µM
TGI (SK-MEL-5 melanoma): 30.4 µM
TGI (SW-620 colon): > 100 µM
TGI (NCI-H460 lung): > 100 µM
TGI (M14 melanoma): > 100 µM
TGI (UACC-257 melanoma): > 100 µM
